In article PMC9774128, “New Insights into the Mechanism of Antibacterial Action of Synthetic Peptide Mo-CBP3-PepI against Klebsiella pneumoniae” (Antibiotics, 2022):

How the values were obtained:
[1] = system: HaCaT cells; test: Morphological analysis of apoptotic cells (AO/EB staining); format: cell-based, human; conditions: peptide 1 mg mL^−1, MMS 4 × 10^−5 M, 24 h
Experimental: (§1) For this assay, the concentration of peptides was 1 mg mL^−1. […] Peptides and control solutions were incubated as described above. Cells with the morphological characteristics of apoptosis, such as apoptotic bodies, peripheral condensation of chromatin, fragmented nucleus, and small cell volume, were evaluated after 24 h of treatment, either with controls or peptides. The evaluation was executed using acridine orange (AO)/ethidium bromide (EB) staining assay. A total of 50 µL of the cell suspension was mixed with 1 µL of the staining solution (100 µg/mL AO + 100 µg/mL EB in PBS) and spread on a slide, where 300 cells were counted per data point.

[2] = system: MRC-5 cells; test: as above; format: cell-based, human; conditions: peptide 1 mg mL^−1, MMS 4 × 10^−5 M, 24 h
Experimental: as §1

[3] = system: HaCaT cells; test: Alkaline comet assay (DNA damage); format: cell-based, human; conditions: peptide 1 mg mL^−1, MMS 4 × 10^−5 M, 24 h
Experimental: (§2) For this assay, MMS at 4 × 10^−5 M was used as the positive control for DNA damage, and peptides were assayed at 1 mg mL^−1. The standard alkaline comet assay (single-cell gel electrophoresis) after treatment (24 h). Cells were washed with ice-cold PBS, trypsinized, and resuspended in a complete medium. […] Afterward, the slides were placed in a horizontal electrophoresis unit and incubated with fresh buffer solution (0.3 M NaOH, 0.001 M EDTA, pH 13.0) at 4 °C for 20 min to allow DNA to unwind and the expression of alkali-labile sites. Electrophoresis was conducted for 20 min at 25 V ([…]). All the above steps were performed in the dark to prevent additional DNA damage. Slides were neutralized (0.4 M Tris, pH 7.5) and stained using 20 µg mL of ethidium bromide. Three hundred cells (100 cells from each of the three replicate slides for each treatment) were selected, coded, and blindly analyzed for DNA migration. These cells were visually scored according to tail length into five classes: • Class 0: undamaged, without a tail; • Class 1: with a tail shorter than the diameter of the head nucleus; • Class 2: with tail length 1–2× the diameter of the head; • Class 3: with a tail longer than 2× the diameter of the head; • Class 4: comets with no heads. The index of damage (ID) value was calculated for each sample. […]

[4] = system: MRC-5 cells; test: Alkaline comet assay (DNA damage); format: cell-based, human; conditions: peptide 1 mg mL^−1, MMS 4 × 10^−5 M, 24 h
Experimental: as §2

[5] = system: L929 cells; test: Alkaline comet assay (DNA damage); format: cell-based, mice; conditions: MMS 4 × 10^−5 M, 24 h
Experimental: as §2

[6] = system: HaCaT (human keratinocytes); test: Cytotoxicity MTT assay; format: cell-based; conditions: peptide 1 mg mL^−1, MMS 4 × 10^−5 M, absorbance 595 nm, three independent experiments
Experimental: (§3) The cytotoxicity assay was assessed by measuring the ability of live cells to convert a yellow dye, 3-(4,5-dimethyl-2-thiozolyl)-2,5-diphenyl-2H-tetrazolium bromide (MTT), to formazan. The cell lines used were L929 (murine fibroblasts, ATCC number CCL-1), MRC-5 (human lung fibroblasts, ATCC number CCL-171), and HaCaT (human keratinocytes) following the methodology described by Souza et al.. Cells were treated with Mo-CBP3-PepI at 1 mg mL^−1. The alkylating agent methyl methanesulfonate (MMS) at 4 × 10^−5 M was used as the positive control. The MTT formazan product was dissolved in 150 µL of DMSO, and the absorbance was measured using a multiplate reader (Spectra Count, Packard, Mississauga, ON, Canada). The drug effect was quantified as the percentage of control absorbance of the reduced dye at 595 nm.

[7] = system: MRC-5 (human lung fibroblasts); test: Cytotoxicity MTT assay; format: cell-based; conditions: peptide 1 mg mL^−1, MMS 4 × 10^−5 M, absorbance 595 nm, three independent experiments
Experimental: as §3

[8] = system: L929 cells; test: Morphological analysis of apoptotic cells (AO/EB staining); format: cell-based, mice; conditions: peptide 1 mg mL^−1, MMS 4 × 10^−5 M, 24 h
Experimental: as §1

[9] = system: L929 (murine fibroblasts); test: Cytotoxicity MTT assay; format: cell-based, mice; conditions: peptide 1 mg mL^−1, MMS 4 × 10^−5 M, absorbance 595 nm, three independent experiments
Experimental: as §3

COS(C)(=O)=O [MMS, methyl methanesulfonate]
cell morphology / apoptosis [1]: severe damage to DNA and nuclei structure | cell morphology / apoptosis [2]: severe damage to DNA and nuclei structure | DNA damage (comet assay) [3]: completely damaged DNA | DNA damage (comet assay) [4]: completely damaged DNA | DNA damage (comet assay) [5]: completely damaged DNA | cell viability (MTT) [6]: death of all cells | cell viability (MTT) [7]: death of all cells | cell morphology / apoptosis [8]: severe damage to DNA and nuclei structure | cell viability (MTT) [9]: death of all cells
